# How the values were obtained:
# [1] = test system: mice with ethanol induced memory retrieval impairment; test: Step through experiment, mice with ethanol induced memory retrieval impairment; type: in vivo; conditions: ethanol model mice, dosage 0.08 mg/kg
# [2] = test system: rats impaired by toxicity; test: Morris water maze, rats impaired by Aβ toxicity; type: in vivo; conditions: Morris water maze swimming; Aβ 1-40 rats, four weeks; dosage 0.08 mg/kg
# Description: (§1) The search strategy is mostly marginal or random. […]
# [3] = test system: rats impaired by β-amyloid precursor protein (Aβ) toxicity; test: Morris water maze, rats impaired by Aβ toxicity; type: in vivo; conditions: Morris water maze swimming; Aβ 1-40 rats, four weeks; dosage 0.08 mg/kg
# Description: as §1
# [4] = test system: monoamine neurotransmitters and its metabolites in whole brain; test: Monoamine neurotransmitters and metabolites in whole brain, rats with Aβ toxicity injury; type: in vivo; conditions: dosage 0.08 mg/kg
# Description: (§2) Acta Pharmacol Sin. 2004; 25: 1118˜23.
# [5] = test system: 5-HT and 5-HIAA in the whole brain; test: Monoamine neurotransmitters in whole brain of APP transgenic mice; type: in vivo; conditions: positive Huperzine A group
# Description: as §2
# [6] = test system: pyramidal cells of hippocampus; test: HE staining, histomorphology of rats with D-galactose induced brain aging; type: in vivo; conditions: compared with the model group
# Protocol: The experiment is performed as per Section 2, Chapter 7 of Pathological Tissue Sectioning and Staining Technology (Gong Zhi-jin et al.).
# The pyramidal cells of hippocampus of rats in the blank group are tight in alignment, obvious with the upper and lower cell lines and rich in number of cells; the nuclear membrane are clear with distinct nucleolus. The pyramidal cells of hippocampus of rats in the model group is loosening in the alignment, oblique in the cellular structure, swelling in the cell body and irregular in the upper and lower cell lines; Some cells have nucleus pyknosis and deep staining.
# [7] = test system: hippocampus nerve cells; test: Ultrastructure of hippocampus nerve cells, rats with Aβ toxicity impairment; type: in vivo; conditions: compared with the model group
# Description: There are margination and pyknosis of chromosome of nucleus of hippocampus nerve cells in rats of the model group; the volume of cell is lessened and the cytoplasm is concentrated; the mitochondria are mildly swelling in a few cells; the cell organelle such as the rough endoplasmic reticulum and ribosome are generally normal; and the presynaptic and postsynaptic membranes are not clear. The synaptic space disappears.
# [8] = test system: ACh in brain; test: Content of ACh in brain of 2VO rats; conditions: 3 months after 2VO, two months after drug administered, dosage 0.06 mg/kg
# [9] = test system: Ach in whole brain; test: Content of ACh in whole brain, rats with Aβ toxicity injury; conditions: Aβ1-40 rats, four weeks after drug administered, dosage 0.08 mg/kg
# [10] = test system: MDA; test: Content of MDA of whole brain, rats with natural aging cognition impairment; conditions: 12 weeks after drug administered, dosage 0.08 mg/kg
# Protocol: (§3) The detection is performed as per the instruction of the reagent kits.
# [11] = test system: Na+-K+-ATP enzyme; conditions: whole brain, Aβ1-40 rats; four weeks after drug administered; dosage 0.08 mg/kg
# Protocol: as §3
# [12] = test system: SOD; test: Activity of SOD of whole brain, rats with natural aging cognition impairment; conditions: 12 weeks after drug administered, dosage 0.08 mg/kg
# Protocol: as §3
# [13] = test system: mice with scopolamine hydrobromide induced memory impairment; test: Step down experiment, mice with scopolamine hydrobromide induced memory impairment; conditions: scopolamine model mice, dosage 0.08 mg/kg
# Protocol: 1.1.2 The experiment is performed as per Nervous System Drugs Section 5 in Methodology of Pharmaceutical Experiment (XU Shu-yun, et al.).
# [14] = test system: hippocampus nerve cells; test: Ultrastructure of hippocampus nerve cells, rats with natural aging cognition impairment; conditions: contrary to the model group
# [15] = test system: 2VO rats; test: Morris water maze, VD rats with bilateral common carotid artery permanent ligation (2VO); conditions: dosage 0.06 mg/kg
# [16] = 15 days after drug administered
compound,measurement,setting,value
C/C=C1\[C@H]2C=C(C)C[C@]1(N)c1ccc(=O)[nH]c1C2 [Huperzine A],Latency,[1]; [16],214.1 ± 127.8 s
same,Number of Mistakes,"[1]; in 5 minutes, 15 days",1.0 ± 1.3
same,Length of route,[2],436.7 ± 284.4
same,Length of time,[3],16.3 ± 10.6
same,5-HIAA,[4],27.3 ± 3.1 µg/L
same,5-HT,[4],41.7 ± 5.9 µg/L
same,DA,[4],136.2 ± 8.5 µg/L
same,DOPAC,[4],13.4 ± 1.3 µg/L
same,HVA,[4],15.4 ± 9.4 µg/L
same,NE,[4],75.9 ± 11.3 µg/L
same,5-HT and 5-HIAA in the whole brain,[5],decrease to different degrees
same,histomorphology of pyramidal cells of hippocampus (HE staining),[6],in order of alignment with clearer contour of cells
same,ultrastructure of hippocampus nerve cells,[7],"better morphology and structure, clearer cell membrane and pre- and post-synaptic membranes"
same,Content of ACh,[8],221.4 ± 41.9 µg/L
same,Content of ACh,[9],180.0 ± 23.5 µg/L
same,Content of MDA,[10],3.50 ± 0.43 nmol/mgProt
same,Activity of Na+—K+-ATP,[11],0.207 ± 0.025 μmoLPi/mgProt/h
same,Activity of SOD,[12],43.68 ± 2.55 NU/mgProt
same,Latency,[13]; [16],271.8 ± 54.6 s
same,Number of Error,"[13]; in 5 minutes, 15 days",0.6 ± 0.9
same,ultrastructure of hippocampus nerve cells,[14],better morphology and structure and clearer cell membrane
same,"Time of passing through maze, 1 month after ligation",[15]; 1 month after ligation,61.3 ± 25.2 s
same,"Time of passing through maze, 2 months after ligation",[15]; 2 months after ligation (one month after drug administered),29.1 ± 18.5 s
same,"Time of passing through maze, 3 months after ligation",[15]; 3 months after ligation (two months after drug administered),10.8 ± 5.6 s
